Measurements: patent US8512678B2, “Non-invasive, in vivo fluorescent imaging of the nervous system in whole living animal” (priority 2005, dated 2013)
Entries after “also recorded” stand apart in the source; their conditions may differ.

Legend:
GFAP-GFP transgene = test: Non-invasive in vivo neural imaging of GFAP-GFP transgenic neonatal mice (relative fluorescence, IVIS); parameters: species or system mouse; conditions: for increase in relative fluorescence (RF), mean, compared to 0 hr: 6 hr after treatment; for increase in relative fluorescence (RF), mean, over the control group: 6 hr post-treatment, P<0.01
Description: The generation and genotyping of the transgenic GFAP-GFP mice were done as previously described (Zhuo et al., 1997). Neonatal mice of FVB/N background at 4 days of age, weighing 2.0 g-2.5 g were used in the present study. Animal husbandry was provided by National University of Singapore animal holding unit facility. The experimental protocol covering the current study was approved by the Institutional Animal Care and Use Committee.
The neonatal mice received a single subcutaneous (sc) injection of 2′-CH3-MPTP (12 mg/kg in saline) at 0 hour. Saline was used as a vehicle for the control group. Neural imaging was subsequently performed at 2 hr, 4 hr, 6 hr and 8 hr post-treatment.
Non-invasive imaging was conducted using an IVIS Imaging System 100 Series (Xenogen Corp., Alameda, Calif., U.S.A.). A 2′-CH3-MPTP-treated pair comprising of a transgenic and a non-transgenic neonatal mouse was positioned beside one another and held in position without anesthesia by physically restraining the mice on the lower back using tape. […] Subsequently, the pair of neonatal mice were fluorescently imaged with the GFP filter set equipped with the IVIS system. The image acquisition time was ten seconds. The same procedure was applied on the control pair injected with saline as well. Result of the neurotoxic effect of 2′-CH3-MPTP on the mice was expressed as relative fluorescence (RF), a ratio between the total GFP fluorescent signals detected from the region of interest (ROI) in transgenic (Tg) mouse and the tissue autofluorescence signals from the ROI in non-transgenic (nTg) mouse (TgROI/nTgROI). The area of the ROI for both mice is exactly the same and is identical throughout all the ROI used in the study to quantify the radiances. To minimize any variations due to the imaging system, three images were captured for each pair of treated and control mice and the mean value derived used as the quantitative reading for that particular pair. The values of the control (n=5 pairs of mice) and treated groups (n=5 pairs of mice) were expressed as means±SEM and statistical significance was evaluated using Student's two-tailed paired t-test.
The neurotoxin used was 2′-CH3-MPTP.
The neurotoxins used were 2′-CH3-MPTP and Kainic Acid (KA). […] KA was used in dosages 2 mg/kg with one injection. All injections were carried out subcutaneously.

[1] = system: GFP expression in the astrocytes; test: Confocal imaging of endogenous GFP with GFAP immunostaining in brain cryosections; type: in vivo, mouse; conditions: for GFP expression in the astrocytes: Tg mice
Method: (§1) In order to determine whether the photons were being emitted from the astrocytes in the CNS, the brains were harvested and fixed with 4% paraformaldehyde in 0.1 M phosphate buffer saline (PBS, pH 7.4) for 4 hr at 4° C. The brains were then washed three times in PBS with an incubation time of 15 min each time before soaking in 30% sucrose overnight at 4° C. All brains were embedded in freezing medium after immersing the tissues in liquid nitrogen prior to mounting and sectioning them using a cryostat (Leica Microsystems, Nussloch GmbH; CM-3050S). Coronal cryosections, 20 μm in thickness of the substantia nigra (bregma −3.16 mm, interaural 0.64 mm) were used for immunohistochemistry according to the Atlas of Mouse brain (Franklin and Paxinos, 2001). Each of the control and treated group contained 4 animals […].
For tyrosine hydroxylase (TH) and GFAP immunostaining, a rabbit anti-TH polyclonal antibody (Chemicon International, Temecula, Calif., USA; Ab-152) and a rabbit anti-GFAP polyclonal antibody (DakoCytomation, Denmark; Z-0334) were used. The cryosections were washed for 5 min in 0.15 M 1×PBS followed by incubating for 4 hr at 4° C. in blocking solution of PBS containing 0.1% (v/v) Triton X-100 and 10% nonimmune goat serum. The cryosections were then washed in 0.15 M 1×PBS three times, each for 15 min. The brain sections were then incubated overnight with anti-TH antibody (1:200) and anti-GFAP antibody (1:200), in 1×PBS containing 0.01% (v/v) Triton X-100 and 1% nonimmune goat serum at 4° C. After a three times 15 min rinse in 1×PBS, the sections were incubated with Texas-red conjugated goat polyclonal to rabbit secondary IgG antibody (Abcam Ltd, Cambridge, U.K.; Ab-7088) at 1:100 dilution in PBS containing 0.01% (v/v) Triton X-100 and 1% nonimmune goat serum for 2 hr at room temperature. After another three times 15 min rinse in 1×PBS, the sections were coverslipped in 10 μl of the fluorescence medium and viewed under the confocal laser scanning microscope (Olympus Optical Co. Ltd. Tokyo, Japan; IX-71).

[2] = system: tyrosine hydroxylase (TH) immuno-positive dopaminergic neurons; test: TH immunostaining in the substantia nigra compact (SNC); type: in vivo, mouse; conditions: 6 hr after 12 mg/kg sc, neonatal mice
Method: as §1
For tyrosine hydroxylase (TH) and GFAP immunostaining, a rabbit anti-TH polyclonal antibody (Chemicon International, Temecula, Calif., USA; Ab-152) and a rabbit anti-GFAP polyclonal antibody (DakoCytomation, Denmark; Z-0334) were used. […] After another three times 15 min rinse in 1×PBS, the sections were coverslipped in 10 μl of the fluorescence medium and viewed under the confocal laser scanning microscope (Olympus Optical Co. Ltd. Tokyo, Japan; IX-71).

GFAP gene expression = test: Real-time RT-PCR of brain RNA, GFAP gene expression; type: in vivo, mouse; conditions: transgenic mice, 2 hours after treatment, 1×2 mg/kg, p<0.01
Method: (§2) […] The brain was removed and then lysed in buffer RA1 and β-mercaptoethanol. Total RNA from the brain was isolated using NucleoSpin® RNA II kit. Total RNA was reverse-transcribed with random hexamers and real-time RT-PCR was performed on the cDNA to quantify gene expression.
(§3) The brain was removed and then lysed in buffer RA1 and β-mercaptoethanol. Total RNA from the brain was isolated using NucleoSpin® RNA II kit. Total RNA was reverse-transcribed with random hexamers and real-time RT-PCR was performed on the cDNA to quantify gene expression. The same procedure is carried out for mice treated with KA (1×2 mg/kg).

GFP gene expression = test: Real-time RT-PCR of brain RNA, GFP gene expression; type: in vivo, mouse; conditions: transgenic mice, 2 hours after treatment, 1×2 mg/kg, p<0.05
Method: as §2, §3

Structure (SMILES): CN1CC=C(c2ccccc2)CC1 [MPTP, 1-methyl-4-phenyl-1,2,3,6-tetrahydropyridine]
- difference in RF between the different time intervals (GFAP-GFP transgene; single dose 12 mg/kg sc, neonatal transgenic mice (FIG. 9)): no significant difference

Structure (SMILES): Cc1ccccc1C1=CCN(C)CC1 [2′-CH3-MPTP, 1-methyl-4-(2′-methylphenyl)-1,2,3,6-tetrahydropyridine]
- expression of the GFAP-GFP transgene in the astrocytes ([1]; SNC sections, 6 hr post-treatment as compared to 0 hr, 12 mg/kg sc): up-regulation
- GFP expression in the astrocytes ([1]; ventricle and hippocampus area, 6 hr after one-time 12 mg/kg sc): evidently increased
- increase in relative fluorescence (RF), mean, compared to 0 hr (GFAP-GFP transgene; single dose 12 mg/kg sc, neonatal mice, P<0.0001): 17%
- increase in relative fluorescence (RF), mean, over the control group (GFAP-GFP transgene; single dose 12 mg/kg sc, neonatal mice, brain ROI): 22%
- difference in relative fluorescence (RF) between treated and control group (GFAP-GFP transgene; single dose 12 mg/kg sc, at 4 hr, 6 hr and 8 hr after treatment): significant difference
- TH immuno-positive fibers and cell bodies / TH-like immunoreactivity [2]: No visual reduction; also recorded: No obvious changes

Structure (SMILES): C=C(C)[C@H]1CN[C@H](C(=O)O)[C@H]1CC(=O)O [KA, Kainic acid]
- GFP expression in the astrocytes ([1]; various areas of the hippocampus (CA1, CA2, CA3), 6 hr after one-time 2 mg/kg sc): evidently increased
- increase in relative fluorescence (RF), mean, compared to 0 hr (GFAP-GFP transgene; single dose 2 mg/kg sc, P<0.05): 22%
- increase in relative fluorescence (RF), mean, over the control group (GFAP-GFP transgene; single dose 2 mg/kg sc, neonatal mice): 25%
- difference in relative fluorescence (RF) between treated and control group (GFAP-GFP transgene; single dose 2 mg/kg sc, at 4 hr and 6 hr after treatment): significant difference
- enhancement in gene expression of GFAP (GFAP gene expression): about 21%
- enhancement in gene expression of GFP (GFP gene expression): ~22%
